Experimental data from patent US20250340532A1, “HETEROCYCLIC COMPOUND CCR4 INHIBITOR AND USER THEREOF” (Xizang Haisco Pharmaceutical Co., Ltd., priority 2022, published 2025).

Key:
[1] = Pharmacokinetic test in mice; type: in vivo, C57 mice
Method: 1.1 Experimental animals: Male C57 mice, 20-25 g, 6 mice/compound. Purchased from Chengdu Ddossy Experimental Animals Co., Ltd.
1.2 Experimental design: On the day of the experiment, 24 C57 mice were randomly grouped according to their body weight. The animals were fasted with water available for 12 to 14 h one day before the administration and were fed 4 h after the administration.
(§1) Before and after the administration, 0.06 mL of blood was taken from the orbit of the animals under isoflurane anesthesia and placed in an EDTAK2 centrifuge tube. The blood was centrifuged at 5000 rpm and 4° C. for 10 min to collect plasma. The blood collection time points for the intravenous group and intragastric administration group were: 0 min, 5 min, 15 min, 30 min, 1 h, 2 h, 4 h, 7 h and 24 h. Before analysis and detection, all samples were stored at −80° C., and a quantitative analysis of samples was performed using LC-MS/MS.

[2] = Pharmacokinetic test in rats; type: in vivo, SD rats
Method: 1.1 Experimental animals: male SD rats, about 220 g, 6-8 weeks old, 6 rats/compound. Purchased from Chengdu Ddossy Experimental Animals Co., Ltd.
1.2 Experimental design: on the day of the experiment, 36 SD rats were randomly grouped according to their body weights. The animals were fasted with water available for 12 to 14 h one day before the administration and were fed 4 h after the administration.
as §1, with “administration, 0.15 ml” for “administration, 0.06 mL”, “intravenous administration” for “intravenous”, “were: 0,” for “were: 0 min,”, “h, 6 h, 8” for “h, 7”

[3] = molecular target: T1, CCR4 (Homo sapiens, UniProt P51679); assay: Calcium flow detected by FLIPR; type: cell-based; conditions: CCR4/HEK293 cells, agonist CCL17, Fluo-4 calcium signal
T1 construct: expressed in transfected cells; host or cells: HEK293
T1 sequence (P51679 1-360): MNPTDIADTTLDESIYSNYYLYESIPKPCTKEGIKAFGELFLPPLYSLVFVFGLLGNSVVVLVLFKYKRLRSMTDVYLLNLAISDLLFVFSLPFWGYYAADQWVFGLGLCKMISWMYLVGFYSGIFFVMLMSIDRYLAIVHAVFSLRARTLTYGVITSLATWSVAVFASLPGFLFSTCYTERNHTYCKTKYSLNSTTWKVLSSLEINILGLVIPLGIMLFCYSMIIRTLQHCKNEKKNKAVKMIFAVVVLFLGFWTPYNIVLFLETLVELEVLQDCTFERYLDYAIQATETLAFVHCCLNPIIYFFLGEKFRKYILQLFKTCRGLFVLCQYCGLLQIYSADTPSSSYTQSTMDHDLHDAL
Method: CCR4/HEK293 cells were added to a 384-well cell culture plate (Greiner #781946) at a rate of 20 μL/well (20,000 cells/well) and incubated overnight in a 37° C., 5% CO2 incubator (Incubator, Thermo). On the second day, the 384-well cell culture plate was taken out of the incubator and the culture medium was removed; Then, 20 μL of detection buffer and 20 μL of 2X Fluo-4 Direct™ (Invitrogen, Cat #F10471) were added. Then, compounds were added at 10 μL/well (compounds were subjected to 4-fold serial dilution, and the highest detection concentration was 10 μM), and the cells were incubated in a 37° C., 5% CO2 incubator for 50 min, and then incubated at room temperature for 10 min. The 384-well culture plate was placed in FLIPR ([…]), 10 μL of 6X agonist CCL17 was added by using an automatic loader, and the fluorescence signal was read immediately. The mean and standard error (Mean±SEM) were statistically analyzed using Graphpad Prism software, and the IC50 value was calculated.
The experimental results are shown in Table 3, where A represents IC50<100 nm; B represents 100 nM≤IC50<500 nM, and C represents 500 nM≤IC50.

[4] = Pharmacokinetic test in beagle dogs; type: in vivo; conditions: for AUC(0-t) / clearance / Vd: male, beagle, dog, plasma; for Vd: read-out: Vdss
Method: Experimental animals: male beagle dogs, about 8-11 kg, 6 beagle dogs/compound, purchased from Beijing Marshall Biotechnology Co., Ltd.
Experimental method: On the day of the experiment, 18 beagle dogs were randomly grouped according to their body weights. The animals were fasted with water available for 12 to 14 h one day before the administration and were fed 4 h after the administration.
Before and after the administration, 1 ml of blood was taken from the jugular veins or limb veins, and placed in an EDTAK2 centrifuge tube. Centrifugation was performed at 5000 rpm at 4° C. for 10 min, and plasma was collected. The blood collection time points for the intravenous group and intragastric administration group were: 0 min, 5 min, 15 min, 30 min, 1 h, 2 h, 4 h, 6 h, 8 h, 10 h, 12 h, 24 h, 48 h, and 72 h. Before analysis and detection, all samples were stored at −80° C. The samples were analyzed quantitatively by LC-MS/MS.

[5] = male, C57, mouse, iv, plasma, i.v. 2.5 mg/kg
[6] = male, SD, rat, iv, plasma, i.v. 2.5 mg/kg

F ([1]; i.g. 10 mg/kg) [%] | AUC(0-t) [1, 5] [ng·h/mL] | clearance [1, 5] [mL/min/kg] | Vd ([1]; male, C57, mouse, iv, plasma, i.v. 2.5 mg/kg, read-out: Vdss) [L/kg] | AUC(0-t) ([1]; male, C57, mouse, po, plasma, i.g. 10 mg/kg) [ng·h/mL] | F ([2]; i.g. 10 mg/kg) [%] | AUC [2, 6] [ng·h/mL] | clearance [2, 6] [mL/min/kg] | Vd ([2]; male, SD, rat, iv, plasma, i.v. 2.5 mg/kg, read-out: Vdss) [L/kg] | AUC ([2]; male, SD, rat, po, plasma, i.g. 10 mg/kg) [ng·h/mL] | IC50 [3] [nM] | F ([4]; i.g. 3 mg/kg) [%] | AUC(0-t) ([4]; iv, i.v. 1 mg/kg) [ng·h/mL] | clearance ([4]; iv, i.v. 1 mg/kg) [mL/min/kg] | Vd ([4]; iv, i.v. 1 mg/kg) [L/kg] | AUC(0-t) ([4]; po, i.g. 3 mg/kg) [ng·h/mL] | SMILES
90.4 ± 14 | 7400 ± 385 | 5.62 ± 0.29 | 1.04 ± 0.055 | 26800 ± 4110 | 80.3 ± 34 | 4630 ± 1030 | 9.19 ± 2.1 | 1.55 ± 0.091 | 14900 ± 6380 | < 100 | >98 | 12100 ± 3170 | 1.38 ± 0.4 | 1.2 ± 0.16 | 37700 ± 10100 | Cc1nc(N2CCC(C3CN(C4CC(C)(C(=O)O)C4)CCO3)CC2)nc(NC(C)c2ccc(Cl)cc2Cl)c1Cl (single isomer, unassigned) [Compound 73 isomer 3]
– | – | – | – | – | – | – | – | – | – | < 100 | >98 | 21100 ± 3840 | 0.672 ± 0.14 | 1.04 ± 0.2 | 68400 ± 7190 | CC(Nc1cc(N2CCC(C3CN(C4CC(C)(C(=O)O)C4)CCO3)CC2)ccc1Cl)c1ccc(Cl)cc1Cl (single isomer, unassigned) [Compound 82 isomer 3]
